# From publication PMC6249675 (Structure (London, England : 1993), 2018)
# How the values were obtained:
# Rac1 [1] = molecular target: T1, Rac1 (Homo sapiens, UniProt P63000); assay: strong anion exchange chromatography of co-purified nucleotide; type: binding; conditions: co-purified from E. coli
# Rac1 [2] = molecular target: T1, Rac1; assay: GTP hydrolysis followed by strong anion exchange chromatography; type: biochemical; conditions: 5 mM GTP, 5 mM MgCl2, room temperature, 24 h
# Rnd3 = molecular target: T2, Rnd3 (Homo sapiens, UniProt P61587); assay: strong anion exchange chromatography of co-purified nucleotide; type: binding; conditions: co-purified from E. coli; not hydrolysed
# T2 sequence (P61587 19-200): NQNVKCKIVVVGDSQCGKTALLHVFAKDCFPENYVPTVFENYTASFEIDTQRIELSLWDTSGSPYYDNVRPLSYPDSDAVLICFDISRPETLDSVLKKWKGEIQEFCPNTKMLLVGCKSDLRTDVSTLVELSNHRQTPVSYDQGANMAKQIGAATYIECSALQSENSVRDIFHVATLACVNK
Structure (SMILES),strong anion exchange chromatography of co-purified nucleotide (Rac1 [1]),GTP hydrolysis followed by strong anion exchange chromatography (Rac1 [2]),strong anion exchange chromatography of co-purified nucleotide (Rnd3)
Nc1nc2c(ncn2[C@@H]2O[C@H](COP(=O)(O)OP(=O)(O)O)[C@@H](O)[C@H]2O)c(=O)[nH]1 [GDP],"wild-type Rac1 which, like other active GTPases, is bound predominantly to GDP",–,–
Nc1nc2c(ncn2[C@@H]2O[C@H](COP(=O)(O)OP(=O)(O)OP(=O)(O)O)[C@@H](O)[C@H]2O)c(=O)[nH]1 [GTP],–,Rac1 (preloaded with GTP) exhibits complete hydrolysis of GTP to GDP in identical conditions,"N-GTPase is similar to the pseudoGTPase Rnd3, which binds only GTP (Fig. 4d)"
